Results reported in US11044932B1, “Composition of (D)-beta-hydroxybutyric acid, (D)-beta-hydroxyvaleric acid, and (D)-1,3 butanediol” (priority 2020, dated 2021).

What was measured:
[1] = similar to lemon juice; cited from earlier work
[2] = administration of D-BHB, D-BHV and D-1,3BD in various ratios to human subjects at rest: circulating ketones and ketotic efficiency; assay type: in vivo; settings: for Max change in mMol/L (increase in circulating ketone level): 10 g dose, three human subjects at rest; for 1 hour ketotic efficiency: 1 hour post-administration; for 1 hour ketotic efficiency / 2 hours ketotic efficiency: subject at rest; for 2 hours ketotic efficiency: 2 hours post-administration; for prolonged rise of blood ketone levels / sustained ketonemia: based on measured plasma levels of FIG. 1, subject at rest; for ketotic efficiency, rank in words: both 1 and 2 hours post-administration
Procedure: The administration of examples presented herein result in an increase in the circulating level of ketones in a human subject at rest that is greater than would result from the administration of (D)-β-hydroxybutyrate or (D)-1,3 butanediol alone over a duration of, for example, 120 minutes. Preferred examples include administration of a combination of D-BHB, D-BHV, and D-1,3BD in a therapeutically effective amount such that the rate change of circulating ketones in the blood of a human subject at rest is faster than the administration of an equivalent amount of either D-BHB or D-1,3BD administered alone. In one example, this includes the administration of a composition including a mixture of 43.2%% D-BHB, 1.8% D-BHV and 55% D-1,3BD. In another example, this includes the administration of a composition including a mixture of 52.8% DBHB, 2.2% D-BHV, and 45% D-1,3BD. In another example, this includes the administration of at composition including a mixture of 62.4% D-BHB, 2.6% D-BHV, and 35% D-1,3BD.
Examples include using a composition including D-BHB, D-BHV, and D-1,3BD in a subject at rest. The ketotic efficiency represents the net elevation of circulating ketones a ketone supplement affects over time in an individual. Ketotic efficiency may be represented as:
[formula] where mMol/L is the concentration of circulating 3-hydroxybutyrate in the blood, g is the total dose of the combined D-BHB, D-BHV, and D-1,3,BD in grams, kg is the mass of the individual in kilograms, and t is an increment of time in minutes.
While this example pertains to a fasted subject at rest, the relative utility of blended vs pure constituents has also been observed in fed and active subjects.
As illustrated by the examples of FIG. 1, these exemplary compositions can advantageously elevate circulating ketones by approximately two times greater than other known compositions. Such a composition can sustain ketonemia for longer than either D-BHB or D-1,3BD can when ingested alone by a subject of a given weight as shown by the 100% line (i.e., contains D-BHB, but not D-1,3BD) and the 0% line (i.e., contains only D-1,3BD, but not D-BHB).
As shown in the following table, the increase in circulating ketone level with a 10 g dose in three human subjects at rest was maximal at between 45-55% D-BHB in the tested compositions. […]

Row | Structure (SMILES) | pH [1] | Max change in mMol/L (increase in circulating ketone level) [2] [mmol/L] | 1 hour ketotic efficiency [2] [kg·mmol·min/g/L] | 2 hours ketotic efficiency [2] [kg·mmol·min/g/L] | prolonged rise of blood ketone levels / sustained ketonemia [2] | ketotic efficiency, rank in words [2]
1 | CC(O)CC(=O)O (stereo not drawn) [100%, (D)-β-hydroxybutyric acid] | 2.5 | 0.9 | 335 | 566 | A similar result | lowest efficiency
2 | CC(O)CCO (centres unmarked) [0%, (D)-1,3 butanediol] |  | 0.8 | 266 | 462 | does not cause a prolonged rise of blood ketone levels | lowest efficiency
